{"source": "patent US8912207B2", "about": "“2-aldoximino-5-fluoropyrimidine derivatives” (Dow AgroSciences, LLP., priority 2009, dated 2014)", "key": {"[1]": {"test_system": "Mycosphaerella graminicola; anamorph: Septoria tritici; Bayer code SEPTTR", "assay": "Fungicidal activity: leaf blotch of wheat, one-day protectant (1DP) and three-day curative (3DC) tests on wheat plants", "format": "in vivo, Septoria tritici on wheat plants (variety Yuma)", "details": "Zymoseptoria tritici, rating of % disease control vs untreated inoculated plants", "procedure": "Evaluation of Fungicidal Activity: Leaf Blotch of Wheat (Mycosphaerella graminicola; anamorph: Septoria tritici; Bayer code […]) Wheat plants (variety Yuma) were grown from seed in a greenhouse in 50% mineral soil/50% soil-less Metro mix until the first leaf was fully emerged, with 7-10 seedlings per pot. These plants were inoculated with an aqueous spore suspension of Septoria tritici either prior to or after fungicide treatments. After inoculation the plants were kept in 100% relative humidity (one day in a dark dew chamber followed by two to three days in a lighted dew chamber) to permit spores to germinate and infect the leaf. The plants were then transferred to a greenhouse for disease to develop. The following table presents the activity of typical compounds of the present disclosure when evaluated in these experiments. The effectiveness of the test compounds in controlling disease was determined by assessing the severity of disease on treated plants, then converting the severity to percent control based on the level of disease on untreated, inoculated plants. In each case of Table III the rating scale is as follows: […]"}, "[2]": {"details": "24 h, one-day protectant, read-out: SEPTTR 25 ppm 1DP"}, "[3]": {"details": "24 h, one-day protectant, read-out: SEPTTR 100 ppm 1DP"}, "[4]": {"details": "72 h, three-day curative, read-out: SEPTTR 25 ppm 3DC"}, "[5]": {"details": "72 h, three-day curative, read-out: SEPTTR 100 ppm 3DC"}}, "note": "Where two headings read alike, the source gives them in different places.", "data": [{"smiles": "COc1ccc(CNc2nc(ON=Cc3ccc(Cl)cc3)ncc2F)cc1", "note": "[Compound 32]", "values": [{"measurement": "pest or weed control at 25 ppm", "setting": "[1]; [2]", "value": "0 to 25", "unit": "%"}, {"measurement": "pest or weed control at 100 ppm", "setting": "[1]; [3]", "value": "0 to 25", "unit": "%"}, {"measurement": "pest or weed control at 25 ppm", "setting": "[1]; [4]", "value": "26 to 50", "unit": "%"}, {"measurement": "pest or weed control at 100 ppm", "setting": "[1]; [5]", "value": "76 to 100", "unit": "%"}]}, {"smiles": "CC(C)C=NOc1ncc(F)c(NCc2ccccc2F)n1", "note": "[Compound 16, 2-methylpropionaldehyde O-[5-fluoro-4-(2-fluorobenzylamino)pyrimidin-2-yl]oxime]", "values": [{"measurement": "pest or weed control at 25 ppm", "setting": "[1]; [2]", "value": "0 to 25", "unit": "%"}, {"measurement": "pest or weed control at 100 ppm", "setting": "[1]; [3]", "value": "0 to 25", "unit": "%"}, {"measurement": "pest or weed control at 25 ppm", "setting": "[1]; [4]", "value": "51 to 75", "unit": "%"}, {"measurement": "pest or weed control at 100 ppm", "setting": "[1]; [5]", "value": "76 to 100", "unit": "%"}]}, {"smiles": "CC=NOc1ncc(F)c(N(C)Cc2ccc(OC)cc2)n1", "note": "[Compound 49]", "values": [{"measurement": "pest or weed control at 25 ppm", "setting": "[1]; [2]", "value": "0 to 25", "unit": "%"}, {"measurement": "pest or weed control at 100 ppm", "setting": "[1]; [3]", "value": "0 to 25", "unit": "%"}, {"measurement": "pest or weed control at 25 ppm", "setting": "[1]; [4]", "value": "0 to 25", "unit": "%"}, {"measurement": "pest or weed control at 100 ppm", "setting": "[1]; [5]", "value": "26 to 50", "unit": "%"}]}, {"smiles": "CC(C)C=NOc1ncc(F)c(NCc2ccc(Cl)cc2)n1", "note": "[Compound 30]", "values": [{"measurement": "melting point", "value": "200 to 205", "unit": "°C"}, {"measurement": "pest or weed control at 25 ppm", "setting": "[1]; [2]", "value": "0 to 25", "unit": "%"}, {"measurement": "pest or weed control at 100 ppm", "setting": "[1]; [3]", "value": "26 to 50", "unit": "%"}, {"measurement": "pest or weed control at 25 ppm", "setting": "[1]; [4]", "value": "0 to 25", "unit": "%"}, {"measurement": "pest or weed control at 100 ppm", "setting": "[1]; [5]", "value": "26 to 50", "unit": "%"}]}, {"smiles": "COc1ccccc1C=NOc1ncc(F)c(/N=C/N(C)C)n1", "note": "[Compound 14]", "values": [{"measurement": "melting point", "value": "220 to 230 °C (dec.)"}, {"measurement": "pest or weed control at 25 ppm", "setting": "[1]; [2]", "value": "76 to 100", "unit": "%"}, {"measurement": "pest or weed control at 100 ppm", "setting": "[1]; [3]", "value": "76 to 100", "unit": "%"}, {"measurement": "pest or weed control at 25 ppm", "setting": "[1]; [4]", "value": "76 to 100", "unit": "%"}, {"measurement": "pest or weed control at 100 ppm", "setting": "[1]; [5]", "value": "76 to 100", "unit": "%"}]}, {"smiles": "CC=NOc1ncc(F)c(N(C)Cc2ccc(Cl)cc2)n1", "note": "[Compound 44]", "values": [{"measurement": "melting point", "value": "214 to 220 °C (dec.)"}]}, {"smiles": "COc1ccc(CN(C)c2nc(ON=Cc3ccccc3)ncc2F)cc1", "note": "[Compound 46]", "values": [{"measurement": "pest or weed control at 25 ppm", "setting": "[1]; [2]", "value": "0 to 25", "unit": "%"}, {"measurement": "pest or weed control at 100 ppm", "setting": "[1]; [3]", "value": "0 to 25", "unit": "%"}, {"measurement": "pest or weed control at 25 ppm", "setting": "[1]; [4]", "value": "26 to 50", "unit": "%"}, {"measurement": "pest or weed control at 100 ppm", "setting": "[1]; [5]", "value": "76 to 100", "unit": "%"}]}, {"smiles": "O=CNc1nc(ON=Cc2ccccc2)ncc1F", "note": "[Compound 4, N-{5-fluoro-2-[1-phenylmethylideneamino-oxy]pyrimidin-4-yl}formamide]", "values": [{"measurement": "pest or weed control at 25 ppm", "setting": "[1]; [2]", "value": "76 to 100", "unit": "%"}, {"measurement": "pest or weed control at 100 ppm", "setting": "[1]; [3]", "value": "76 to 100", "unit": "%"}, {"measurement": "pest or weed control at 25 ppm", "setting": "[1]; [4]", "value": "76 to 100", "unit": "%"}, {"measurement": "pest or weed control at 100 ppm", "setting": "[1]; [5]", "value": "76 to 100", "unit": "%"}]}, {"smiles": "CN(Cc1ccccc1)c1nc(ON=Cc2ccccc2)ncc1F", "note": "[Compound 36]", "values": [{"measurement": "pest or weed control at 25 ppm", "setting": "[1]; [2]", "value": "0 to 25", "unit": "%"}, {"measurement": "pest or weed control at 100 ppm", "setting": "[1]; [3]", "value": "0 to 25", "unit": "%"}, {"measurement": "pest or weed control at 25 ppm", "setting": "[1]; [4]", "value": "26 to 50", "unit": "%"}, {"measurement": "pest or weed control at 100 ppm", "setting": "[1]; [5]", "value": "51 to 75", "unit": "%"}]}, {"smiles": "COc1ccc(CNc2nc(ON=Cc3ccccc3)ncc2F)cc1", "note": "[Compound 31]", "values": [{"measurement": "pest or weed control at 25 ppm", "setting": "[1]; [2]", "value": "26 to 50", "unit": "%"}, {"measurement": "pest or weed control at 100 ppm", "setting": "[1]; [3]", "value": "76 to 100", "unit": "%"}, {"measurement": "pest or weed control at 25 ppm", "setting": "[1]; [4]", "value": "51 to 75", "unit": "%"}, {"measurement": "pest or weed control at 100 ppm", "setting": "[1]; [5]", "value": "76 to 100", "unit": "%"}]}, {"smiles": "COc1ccc(CNc2nc(ON=CC(C)C)ncc2F)cc1", "note": "[Compound 35]", "values": [{"measurement": "pest or weed control at 25 ppm", "setting": "[1]; [2]", "value": "0 to 25", "unit": "%"}, {"measurement": "pest or weed control at 100 ppm", "setting": "[1]; [3]", "value": "26 to 50", "unit": "%"}, {"measurement": "pest or weed control at 25 ppm", "setting": "[1]; [4]", "value": "0 to 25", "unit": "%"}, {"measurement": "pest or weed control at 100 ppm", "setting": "[1]; [5]", "value": "76 to 100", "unit": "%"}]}, {"smiles": "COc1ccc(C=NOc2ncc(F)c(NCc3ccc(OC)cc3)n2)cc1", "note": "[Compound 33]", "values": [{"measurement": "pest or weed control at 25 ppm", "setting": "[1]; [2]", "value": "51 to 75", "unit": "%"}, {"measurement": "pest or weed control at 100 ppm", "setting": "[1]; [3]", "value": "76 to 100", "unit": "%"}, {"measurement": "pest or weed control at 25 ppm", "setting": "[1]; [4]", "value": "0 to 25", "unit": "%"}, {"measurement": "pest or weed control at 100 ppm", "setting": "[1]; [5]", "value": "51 to 75", "unit": "%"}]}, {"smiles": "Fc1ccccc1CNc1nc(ON=Cc2ccccc2)ncc1F", "note": "[Compound 17]", "values": [{"measurement": "pest or weed control at 25 ppm", "setting": "[1]; [2]", "value": "76 to 100", "unit": "%"}, {"measurement": "pest or weed control at 100 ppm", "setting": "[1]; [3]", "value": "76 to 100", "unit": "%"}, {"measurement": "pest or weed control at 25 ppm", "setting": "[1]; [4]", "value": "0 to 25", "unit": "%"}, {"measurement": "pest or weed control at 100 ppm", "setting": "[1]; [5]", "value": "0 to 25", "unit": "%"}]}, {"smiles": "COc1ccc(C=NOc2ncc(F)c(NCc3ccccc3F)n2)cc1", "note": "[Compound 19]", "values": [{"measurement": "pest or weed control at 25 ppm", "setting": "[1]; [2]", "value": "51 to 75", "unit": "%"}, {"measurement": "pest or weed control at 100 ppm", "setting": "[1]; [3]", "value": "76 to 100", "unit": "%"}, {"measurement": "pest or weed control at 25 ppm", "setting": "[1]; [4]", "value": "0 to 25", "unit": "%"}, {"measurement": "pest or weed control at 100 ppm", "setting": "[1]; [5]", "value": "0 to 25", "unit": "%"}]}, {"smiles": "CC(C)C=NOc1ncc(F)c(NCc2ccccc2)n1", "note": "[Compound 25]", "values": [{"measurement": "pest or weed control at 25 ppm", "setting": "[1]; [2]", "value": "0 to 25", "unit": "%"}, {"measurement": "pest or weed control at 100 ppm", "setting": "[1]; [3]", "value": "26 to 50", "unit": "%"}, {"measurement": "pest or weed control at 25 ppm", "setting": "[1]; [4]", "value": "26 to 50", "unit": "%"}, {"measurement": "pest or weed control at 100 ppm", "setting": "[1]; [5]", "value": "76 to 100", "unit": "%"}]}]}
